According to patent publication US9877981B2, “NAD biosynthesis and precursors for the treatment and prevention of cancer and proliferation” (President and Fellows of Harvard College, priority 2012, dated 2018):

Tests used:
C2C12 myoblasts = test: mtDNA content and ETC gene expression in C2C12 myoblasts; assay type: cell-based, mouse; conditions: C2C12 myoblasts treated with DMOG, 16 h
Protocol: C2C12 cell line (ATCC) was cultured in low glucose Dulbecco's modified eagle medium (DMEM) (Invitrogen) supplemented with 10% FBS (Invitrogen) and a mix of antibiotic and antimycotic (Invitrogen). To inhibit SIRT1, cells were treated the vehicle (0.001% DMSO) or 10 μM EX-527 (Tocris) for 12 h. C2C12 myoblasts were infected with an empty or SIRT1 adenovirus as described before (Gerhart-Hines et al., 2007) and the media was replaced with fresh DMEM for additional 48 h, after that the cells were treated as described before. To test the effects of hypoxia and HIFα stabilization in genome asyncrony, C2C12 myoblasts were exposed to 1% oxygen for 16 h or treated with the vehicle (0.001% DMSO) or DMOG (Cayman) for the same period of time.
RNA from skeletal muscle tissue and C2C12 cells were extracted with RNeasy mini kit (Qiagen) according to the instructions and quantified using the NanoDrop 1000 spectrophotometer (Thermo Scientific). cDNA was synthesized with the iSCRIP cDNA synthesis kit (BioRad) using 600 ng of RNA. Quantitative RT-PCR reactions were performed using 1 μM of primers and LightCycler® 480 SYBR Green Master (Roche) on an LightCycler® 480 detection system (Roche). Calculations were performed by a comparative method (2-ΔCT) using 18S as an internal control. For mtDNA analysis, total DNA was extracted with DNeasy blood and tissue kit (Qiagen). mtDNA was amplified using primers specific for the mitochondrial cytochrome c oxidase subunit 2 (COX2) gene and normalized to genomic DNA by amplification of the ribosomal protein s18 (rps18) nuclear gene. Primers were designed using the IDT software (IDT) and the primer sequences can be found in Table 1.

TFAM promoter = TFAM promoter activity by luciferase assay in primary WT myoblasts; assay type: cell-based, mouse; conditions: DMOG vs DMSO
Protocol: TFAM promoter, VHL promoter, HRE and c-Myc activity were determined using a luciferase-based system. Luciferase activity was measured using the Dual-Luciferase Reporter Assay System (Promega) with Renilla as the reference.
TFAM promoter activity was evaluated using a TFAM promotes-luc plasmid. A fragment of the mouse Tfam promoter (1.4 kb upstream of the coding sequence) was cloned into a pGL4.15 vector (Promega). Luciferase activity was measured using the Dual-Luciferase Reporter Assay System (Promega) with Renilla as the reference 48 h after transfection.

VHL = test: Immunoblot for VHL in gastrocnemius of treated mice; assay type: in vivo; conditions: 6- and 22-month-old mice, NMN one week
Source text: (§1) C57BL/6J mice of 6, 22, or 30 months of age were obtained from the National Institutes of Aging mouse aging colony. Additionally 22 months old caloric restricted mice were also obtained from the National Institutes of Aging mouse aging colony. EGLN1 KO, SIRT1 KO and SIRT1 OE mice were generated as previously described (Minamishima et al., 2008; Price et al., 2012). Mice were acclimated for at least one-week prior to sacrifice. 3, 6, 22 and 24-month-old mice were given interperitoneal (IP) injections of 500 mg NMN/kg body weight per day or the equivalent volume of PBS for 7 consecutive days at 5:00 pm and 7:00 am on day 8 and sacrificed 4 hr after last injection.
C57BL/6J mice of 3, 6, 22, or 24 months of age were obtained from the National Institutes of Aging mouse aging colony. […]
Protein extracts from tissue were obtained by lysis in ice-cold lysis buffer (150 mM NaCl, 10 mM Tris HCl (pH 7.4), 1 mM EDTA, 1 mM EGTA, 1% Triton X-100, 0.5% NP-40) supplemented with a cocktail of protease and phosphatase inhibitors (Roche). Protein content was determined by the Bradford protein assay (Biorad), and 50 μg proteins were run on SDS-PAGE under reducing conditions. […] The immunostaining was detected using horseradish peroxidase-conjugated anti-rabbit or anti-mouse immunoglobulin for 1 h at room temperature.

lactate = test: Lactate levels in skeletal muscle of treated mice; assay type: in vivo; conditions: 6- and 22-month-old mice; NMN one week
Source text: as §1
C57BL/6J mice of 3, 6, 22, or 24 months of age were obtained from the National Institutes of Aging mouse aging colony. Additionally 22 months old caloric restricted mice were also obtained from the National Institutes of Aging mouse aging colony. Mice were acclimated for at least one-week prior to sacrifice. 3, 6, 22 and 24-month-old mice were given interperitoneal (IP) injections of 500 mg NMN/kg body weight per day or the equivalent volume of PBS for 7 consecutive days at 5:00 pm and 7:00 am on day 8 and sacrificed 4 hr after last injection. […]
Lactate from skeletal muscle was quantified with a commercially available kit (BioVision) according to the manufacturer's instructions.

primary myoblasts = test: qPCR of mitochondrial-encoded genes in primary myoblasts infected with NMNAT1 or nontargeting shRNA; assay type: cell-based, mouse; conditions: primary myoblasts with knockdown of NMNAT1

SMILES	expression of mitochondrially-encoded ETC genes (C2C12 myoblasts)	expression of nuclear-encoded ETC components (C2C12 myoblasts)	mtDNA content (C2C12 myoblasts)	full length TFAM promoter activity (TFAM promoter)	TFAM promoter activity with c-Myc consensus sequence mutation (TFAM promoter; c-Myc binding site absent)	VHL protein (VHL)	lactate levels in the skeletal muscle (lactate)	ability of NMN to induce expression of mitochondrial-encoded genes (primary myoblasts)
COC(=O)CNC(=O)C(=O)OC [DMOG, dimethyloxaloylglycine]	specific decline	not the nuclear-encoded components	specific decline in mtDNA content	reduces the full length TFAM promoter activity	does not have an additive effect	–	–	–
NC(=O)c1ccc[n+]([C@@H]2O[C@H](COP(=O)([O-])O)[C@@H](O)[C@H]2O)c1 [NMN, nicotinamide mononucleotide]	–	–	–	–	–	reversed the age-induced decline in VHL	suppressed the increase in lactate levels	completely abolishes the ability of NMN to induce the expression of mitochondrial-encoded genes
